Laboratory results published in ChEMBL document CHEMBL2346626, “PF-04859989 as a template for structure-based drug design: identification of new pyrazole series of irreversible KAT II inhibitors with improved lipophilic efficiency” (Bioorg Med Chem Lett, 2013).
pIC50, pKi: −log10 of the molar value.

Experiments:
[1] = molecular target: T1, Kynurenine/alpha-aminoadipate aminotransferase, mitochondrial (Homo sapiens, UniProt Q8N5Z0); experiment: Ratio of Kinact to Ki for inhibition of human KAT2
Target sequence in this assay (Q8N5Z0 30-425 limits assumed): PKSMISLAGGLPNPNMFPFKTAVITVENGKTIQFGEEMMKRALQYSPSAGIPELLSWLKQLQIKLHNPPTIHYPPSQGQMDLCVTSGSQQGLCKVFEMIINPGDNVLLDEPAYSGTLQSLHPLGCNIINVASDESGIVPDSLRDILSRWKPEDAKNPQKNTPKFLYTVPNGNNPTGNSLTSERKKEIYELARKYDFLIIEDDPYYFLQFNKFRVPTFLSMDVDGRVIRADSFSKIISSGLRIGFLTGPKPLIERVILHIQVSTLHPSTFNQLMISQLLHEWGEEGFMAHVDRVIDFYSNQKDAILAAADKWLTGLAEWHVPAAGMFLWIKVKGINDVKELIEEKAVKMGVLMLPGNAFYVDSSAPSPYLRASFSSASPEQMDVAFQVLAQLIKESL

[2] = molecular target: T1, Kynurenine/alpha-aminoadipate aminotransferase, mitochondrial; experiment: Inhibition of human KAT2 using L-kynurenine as substrate measured every 5 mins for 16 hours by UV-visible spectra analysis
Target sequence in this assay (Q8N5Z0 30-425 limits assumed): as above

[3] = molecular target: T1, Kynurenine/alpha-aminoadipate aminotransferase, mitochondrial; experiment: Inhibition of human KAT2 using L-kynurenine as substrate after 15 to 20 hrs by UV-visible spectra analysis
Target sequence in this assay (Q8N5Z0 whole entry): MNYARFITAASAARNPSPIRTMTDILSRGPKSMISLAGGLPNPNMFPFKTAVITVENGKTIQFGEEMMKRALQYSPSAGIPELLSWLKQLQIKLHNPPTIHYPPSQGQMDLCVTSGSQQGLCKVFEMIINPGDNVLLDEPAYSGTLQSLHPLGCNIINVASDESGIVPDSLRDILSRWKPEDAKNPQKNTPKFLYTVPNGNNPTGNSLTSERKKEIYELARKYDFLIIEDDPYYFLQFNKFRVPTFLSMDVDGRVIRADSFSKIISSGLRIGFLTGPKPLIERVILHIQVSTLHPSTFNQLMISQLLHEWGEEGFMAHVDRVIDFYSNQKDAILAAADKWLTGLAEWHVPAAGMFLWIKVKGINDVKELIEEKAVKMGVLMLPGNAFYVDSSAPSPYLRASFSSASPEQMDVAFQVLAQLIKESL

[4] = Intrinsic apparent clearance in human liver microsomes; type: ADME, Microsome; settings: read-out: CLH(app)

Ratio [1] [M⁻¹ s⁻¹] | Kinact [2] [min⁻¹] | pKi [3] | pIC50 [3] | microsomal CLint [4] [µL/min/mg] | Structure (SMILES)
16000 | 0.0349 | 7.49 | – | – | Cn1nc(Cc2ccccc2)c2c1N(O)C(=O)[C@@H](N)C2
8710 | 0.0116 | 7.66 | – | – | COc1cccc(Cc2nn(C)c3c2C[C@H](N)C(=O)N3O)c1
7920 | 0.0227 | 7.32 | 7.13 | – | N[C@H]1Cc2c(c(C(F)(F)F)nn2Cc2ccccc2)N(O)C1=O
16200 | 0.0116 | 7.92 | – | – | N[C@H]1Cc2c(cnn2Cc2ccccc2)N(O)C1=O
10500 | 0.0147 | 7.64 | 7.33 | – | N[C@H]1Cc2cn(Cc3ccccc3)nc2N(O)C1=O
– | – | 7.85 | – | – | N[C@H]1Cc2ccccc2N(O)C1=O
112000 | 0.0125 | 8.72 | 7.60 | < 8 | N[C@H]1Cc2cn(-c3ccccc3)nc2N(O)C1=O
129000 | 0.0146 | 8.80 | 7.43 | 26 | COc1cc2c(cc1Cc1ccccc1)C[C@H](N)C(=O)N2O
8580 | 0.0144 | 7.39 | 7.07 | – | N[C@H]1Cc2nn(-c3ccccc3)cc2N(O)C1=O
